The test system of series [1] is Malassezia furfur (ATCC #38593). Kind of series: Anti-fungal activity against Malassezia furfur (96 well broth assay, Alamar blue). It counts as cell-based. Particulars: ATCC38593, 120 h; for IC50: read-out: M. furfur IC50; for MIC: visible growth. As for the experimental part: The terms Minimum Inhibitory Concentration and Half Maximal Inhibitory Concentration will be understood to have the following meanings. • Minimum Inhibitory Concentration (MIC) The minimum inhibitory concentration (MIC) will be understood to represent the lowest concentration of an anti-microbial that will inhibit the visible growth of a microorganism after overnight incubation. • Half Maximal Inhibitory Concentration (IC50) The half maximal inhibitory concentration (IC50) is a measure of the effectiveness of a substance in inhibiting a spec biological or biochemical function. This quantitative measure indicates how much of a particular drug or other substance (inhibitor) is needed to inhibit a given biological process (or component of a process, i.e. an enzyme, cell, cell receptor or microorganism) by half. IC50 represents the concentration of an active that is required for 50% inhibition in-vitro.
Malassezia furfur (ATCC #38593) was cultured on Media C agar for 7 days at 37° C. Yeast colonies were then harvested into 0.9% saline sterile diH2O and diluted to approximately 1.5×10^6 CFU/mL using a 0.5 MacFarland standard (Fisher #R20410) to create an assay inoculum. Assay inoculum was added to sterile Media C broth to a final concentration of 4.5×10^4 CFU/mL. Assays were carried out in 96 well plates with a final well volume of 100 μL.
Extract fractions and pure compounds were tested in triplicate against each organism. Extract fractions and pure compounds were re-suspended in sterile 20% DMSO.
Each plate contained eight un-inoculated positive controls (media+20% DMSO), eight untreated negative controls (Media+20% DMSO+organism), and one column containing a concentration range of a ketoconazole as a control antibiotic. The assay plate was incubated at 37° C. for 5 days after which growth within the wells were visualised and photographed with a UVP Biospectrum 500 imaging system. Alamar blue was then added to each well at 10% of the culture volume (11 μL in 100 μL). Fluorescence was monitored using a BioTek Synergy HT plate reader at 530/25 excitation, 590/35 emission and 35 sensitivity at both time zero and 4 hours after Alamar blue was added. After subtracting the time zero emission 590 nm measurement from the final reading the inferred percentage of microorganism survival relative to vehicle control wells were calculated and the IC50 was determined.

Series [2] can be described thus: Cytotoxicity against keratinocyte cells (Alamar blue). It counts as cell-based, human. The settings on record: human. How it is done:
(§1) Adult human epidermal keratinocytes (Heka) isolated from skin (Invitrogen #C-005-5C) were grown and maintained in 15 mL of EPilife medium (Invitrogen #M-EPI-500) supplemented with HKGS growth supplements (Invitrogen #S-001-5) (0.2% v/v bovine pituitary extract (BPE), 5 μg/mL bovine insulin, 0.18 μg/mL hydrocortisone, 5 μg/mL bovine transferrin, 0.2 ng/mL human epidermal growth factor) and 50 μg/mL gentamicin (Sigma #G1397-10ML) in T75 cm2 cell culture flasks (VWR #CABD353136) and incubated at 37° C. in a humidified atmosphere of 5% CO2. Growth medium was refreshed every 2 days until the cells reached 50% confluency and then the medium was refreshed every 24 hours until 80% confluency was obtained.
(§2) At 80% confluency, the cells were counted, diluted and plated into 96 well treated cell culture plates (VWR #29442-054) at a cell density of 10000 cells per well in 90 μL of respective growth medium. All media used for the assay were the same without the addition of antibiotics. The plates were incubated at 37° C. in a humidified atmosphere of 5% CO2 to allow cells to adhere to the plates for 24 hrs before treatment. DMSO was used as the vehicle at a final concentration of 1% in the wells.
(§3) All compounds to be tested were resolublised in sterile DMSO (Sigma #D2438) and a dilution series was prepared for each cell line using the respective cell culture growth medium of which 10 μL were added to the respective assay plate well yielding eight final concentrations ranging from 128 μg/mL to 1 μg/mL per well (final well volume of 100 μL) and incubated at 37° C. in a humidified atmosphere of 5% CO2 for 24 hrs.
(§4) All samples were tested in triplicate. Each plate contained eight un-inoculated positive controls (media+20% DMSO), eight untreated negative controls (Media+20% DMSO+cells). Alamar blue (Invitrogen #Dal1100) was added, 24 hrs after treatment, to each well at 10% of the culture volume (11 μL in 100 μL). Fluorescence was monitored using a BioTek Synergy HT plate reader at 530/25 excitation, 590/35 emission and 35 sensitivity at both time zero and 4 hrs after Alamar blue was added. After subtracting the time zero emission 590 nm measurement from the final reading the inferred percentage of microorganism survival relative to vehicle control wells were calculated and the IC50 was determined.
(Resazurin is reduced to fluorescent resorufin, in cell work by metabolically active cells.)

Series [3] deals with Adult human epidermal keratinocytes (Heka). Described as above. Format: cell-based. The settings on record: for Keratinocyte MIC: 24 hrs treatment. As for the experimental part: as §1, §2, §3, §4
The nature of series [4]: Cytotoxicity against fibroblast cells (Alamar blue). Format: cell-based, human. The settings on record: human, 24 hrs treatment, Alamar blue, read-out: Fibroblast IC50. How it is done:
(§5) Human foreskin BJ fibroblast cells (ATCC CRL-2522) were grown and maintained in 15 mL of Eagle's minimal essential medium (Sigma M5650) supplemented with 10% fetal bovine serum (VWR #CA95043-976) and 100 μU penicillin and 0.1 mg/mL streptomycin (VWR #CA12001-692) in T75 cm2 cell culture flasks (VWR #CABD353136) at 37° C. in a humidified atmosphere of 5% CO2. Culture medium was refreshed every two to three days and cells were not allowed to exceed 80% confluency.
as §2, §3, §4

For series [5], the system named is Human foreskin BJ fibroblast cells (ATCC CRL-2522). The description is as above. Format: cell-based. Particulars: for Fibroblast MIC: 24 hrs treatment. As for the experimental part:
as §5, §2, §3, §4

Series [6] can be described thus: Stability of pycnidione formulated in off-the-shelf shampoo composition. Format: physicochemical. The settings on record: J&J baby shampoo, after a two month period.
Setting [7] is: adult human epidermal keratinocytes (Heka), 24 hrs treatment, Alamar blue, read-out: Keratinocyte IC50.
[8] abbreviates: human foreskin BJ fibroblast cells (ATCC CRL-2522).
Where [9] appears, read: at 8 μg/ml, where inhibition of Malassezia yeasts is retained.

Like-named read-outs stand apart in the source and are kept apart here.

In general, IC50 refers to the midpoint of a concentration-inhibition curve. As a reminder, the MIC is the least concentration at which growth counts as inhibited. As to `Cc1cc(=O)c(O)cc2c1C[C@H]1CC(C)(C)/C=C/C[C@@]3(C)Oc4cc(O)cc(C)c4C[C@@H]3C[C@H](O)[C@]1(C)O2` [Epolone A, epolone A], the IC50 in series [1] (37° C., 5 days, Alamar blue) stood at 48 µg/mL. The MIC in series [1] (37° C., 5 days) was 64 µg/mL. Moreover, the CC50 at 24 h in series [2] (setting [7]) was 13 µg/mL; in series [4] (setting [8]), 14 µg/mL. Further, in series [3], the “Keratinocyte MIC” value turned out to be 32 µg/mL. In addition, in series [5], the “Fibroblast MIC” value came out at 32 µg/mL.
For the compound `C/C1=C\CC(C)(C)/C=C/C[C@@]2(C)Oc3cc(O)c(=O)cc(C)c3C[C@@H]2C[C@H]1O` [Epolone B, epolone B], in series [1] (37° C., 5 days, Alamar blue), the IC50 amounted to 24 µg/mL. In series [1] (37° C., 5 days), the MIC was 32 µg/mL. In addition, the CC50 at 24 h in series [2] (setting [7]) is 50 µg/mL; in series [4] (setting [8]), greater than 128 µg/mL. In addition, the “Keratinocyte MIC” value in series [3] is greater than 128 µg/mL. In addition, in series [5], the “Fibroblast MIC” value is greater than 128 µg/mL.
Regarding `Cc1cc(=O)c(O)cc2c1C[C@H]1CC(C)(C)/C=C/C[C@@]3(C)Oc4cc(O)c(=O)cc(C)c4C[C@@H]3C[C@H](O)[C@]1(C)O2` [Pycnidione, pycnidione], the MIC in series [1] (37° C., 5 days) was 8 µg/mL. Further, the IC50 in series [1] was determined as 6 µg/mL. In addition, the CC50 at 24 h in series [2] (text of b135, read-out: IC50, toxicity to keratinocyte cells) was 15 µg/mL; in series [4], 11 µg/mL. In series [3], the “Keratinocyte MIC” value amounted to 64 µg/mL. For the same compound, the “cell line cytotoxicity at lower concentrations (keratinocyte)” value in series [3] (setting [9]) is “no cell line cytotoxicity was observed”. For the same compound, the “Fibroblast MIC” value in series [5] came out at 64 µg/mL. For the same compound, in series [5] (setting [9]), the “cell line cytotoxicity at lower concentrations (fibroblast)” value is listed as “no cell line cytotoxicity was observed”. Moreover, the “stability of shampoo composition” value in series [6] was “remained stable”.
In the case of `[O-]n1ccccc1=S.[O-]n1ccccc1=S.[Zn+2]` [zinc pyrithione, zinc salt of 1-hydroxy-2-pyridinethione, reference compound], the “Keratinocyte MIC” value in series [3] is 1 µg/mL.

The values above are taken from patent US10898421B2, “Anti-dandruff composition comprising pycnidione and epolone” (Croda International PLC, priority 2015, dated 2021).
